Common to all, as to type: functional
For assay [1], the target named is T1, G-protein coupled receptor 6 (Homo sapiens, UniProt P46095). As to the kind of experiment: Inverse agonist activity at rat G-protein GSalpha fused GPR6 (unknown origin) expressed in HEK293 cell membranes assessed as cAMP accumulation pre-incubated for 30 mins by microbeta plate reader based assay. On the technique in general: Changes in cAMP serve as a functional read-out for many G protein-coupled receptors.

Assay [2] has as its target T1, G-protein coupled receptor 6. Briefly: Inverse agonist activity at rat G-protein GSalpha fused GPR6 (unknown origin) expressed in HEK293 cell membranes assessed as effect on [35S]GTPgammaS binding pre-incubated for 5 to 10 mins followed by 60 mins incubation in presence of [35S]GTPgammaS by scintillation proximity assay. A general note: Binding of GTPγS marks nucleotide exchange on a G protein.

In the next assay the test system is Rattus norvegicus. Briefly: Reduction in body weight gain in 24 hrs food-deprived Sprague-Dawley rat assessed as body weight gain level at 100 umol/kg, po followed by standard chow pellets feeding and measured 6 hrs post dose (reference value: 20.3g).

T1 sequence (P46095 whole entry, the tested form may be a part): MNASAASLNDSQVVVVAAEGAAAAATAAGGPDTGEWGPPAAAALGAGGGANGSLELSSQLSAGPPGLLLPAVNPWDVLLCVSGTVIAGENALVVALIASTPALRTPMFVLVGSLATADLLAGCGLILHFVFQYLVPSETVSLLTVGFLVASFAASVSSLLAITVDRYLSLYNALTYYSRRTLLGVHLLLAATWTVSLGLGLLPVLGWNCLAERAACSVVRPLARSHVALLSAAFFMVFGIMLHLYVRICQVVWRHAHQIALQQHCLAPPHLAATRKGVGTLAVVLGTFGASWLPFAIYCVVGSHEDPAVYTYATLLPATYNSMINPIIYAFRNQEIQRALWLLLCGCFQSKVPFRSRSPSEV

With `O=C(/N=C1\SSC2=NCCN21)c1ccccc1`, the 50% inhibitory concentration (IC50) (commonly the concentration that gives 50% inhibition) worked out at 170 nM in assay [1] and 440 nM in assay [2]. Further, the Activity with Rattus norvegicus is reported as 6.18 g.
